As usually defined, the inhibition is the change of the read-out against control, counted positive when it falls. As a reminder, the IC50 is the midpoint of a concentration-inhibition curve. Low values mean higher potency, high ones lower potency. As usually defined, the EC50 is the concentration at which the effect is half-maximal.

In one experiment the test system is CHIKV strain of La Réunion outbreak (LR2006-OPY1) with GFP modification in 5′. Description: microbe, parasite or virus in culture. In kind it is cell-based, Chikungunya virus. The note with it: Chikungunya virus, HEK-293T; compounds at 1 μM, infected HEK293T cells, MOI 0.1, 22 h; values above 100 lowered to 100; read-out: % CHIKV Inhibition Mean (n = 2). On the procedure:
The ability of the compounds to inhibit viral replication was assessed with an experiment in which infected cells were treated by compounds of formula (Ic) at 1 μM. As a positive control for inhibition of Chikungunya, Ribavirin was used. Toxicity of the compounds was assessed in parallel.
Human embryonic kidney cells 293T (HEK293T, CRL-11268) were maintained in Dulbecco's modified Eagle's Medium (DMEM, 31966-021, Thermo Fisher Scientific) supplemented with 10% of fetal bovine serum (FBS), penicillin and streptomycin. After removal of the medium, cells were washed with Ca^2+ and Mg^2+-free salt solution to remove all traces of serum. After aspiration of wash solution, cells were dissociated with 0.25% Trypsin-EDTA solution and incubated 30 s at least in 37° C. incubator. Concentration of cell suspension was determined by an automatic cell counter (EVE, NanoEntek) and, if needed, adjusted to 0.33×10^6 cells/mL with DMEM medium supplemented with 10% FBS.
100 μL of the cell suspension were dispatched in a ViewPlate-96 Black (6005182, PerkinElmer) and in a transparent 96-well cell culture plate (655180, Greiner bio-one). After an incubation for 24 h at 37° C. under 5% of CO2, compounds were added at the proper concentration.
An intermediate dilution was prepared with DMSO (D8418, Sigma) at 2 mM in a 96-well V-bottom microplate from the stock solution:
An intermediate dilution was prepared with DMSO (D8418, Sigma) at 25 mM in a 96-well V-bottom microplate from the stock solution:
Perform serial dilution in 2 μL of DMSO 13 times to reach 0.0015 mM. Proceed as follows in table III:
For both screen and determination of IC50, 1 μL of each solution was added in a 1 mL Masterblock 96 wells (Greiner bio-one, 780261) containing 1 mL of DMEM medium. As a positive control, 5 μL of a 80 mM Ribavirin solution (R9644, Sigma) is added to 1 mL of DMEM. On the other hand, DMSO is used as a negative control.
[…]. Vector Borne Zoonotic Dis. 2006; 6 (4)). This modified virus was used to infect cells at MOI 0.1. […].
Medium was removed after 22 h at 37° C. under 5% of CO2 and cells were washed as described above. 60 μL of RIPA buffer (50 mM Tris-HCl pH8, 100 mM NaCl, 1 mM MgCl2, 1% Triton X-100) was added to cells and incubated for at least 20 min before reading fluorescence signal. Pierce 660 nm Protein Assay Reagent (22660, Thermo scientific) was used to normalize fluorescence signal by protein quantity.
• A first round of experiments has been performed wherein the results are expressed as inhibition percentage, which is calculated as follows, through the following steps: • 1. Fluorescence intensity (FI)/Absorbance 660 nm (A660)=A • This ratio allows considering the infection (GFP virus) to the protein amount. • 2. A′=A−background noise of non-infected plate, • 3. B=Fluorescence intensity (FI)/Absorbance 660 nm (A660) of infected but non treated plates, • 4. C=A′/B, which is then converted as the percentage of infection after treatment, compared to non-treated sample, and subsequently as the infection percentage. For instance, a value of 100 in Table IV here below means that, after treatment, the signal attributed to GFP fluorescence is abolished, which is correlated to the absence of infection. • 5. C′=100-C
This value corresponds to the inhibition's percentage.
The following Table IV encompasses said C′ value for some compounds, as calculated above with a mean of 2 experiments, and corresponding standard deviation.
Some values were originally above 100. In these cases, the value has been lowered to 100. This means that some molecules also have an impact on the viability of the cells. In other words, the A value may be lower than the background noise.
Moreover, for each measure, the test was performed with Ribavirin as control. The value of the inhibition percentage was checked, giving 100%.
For the molecule `O=C(N=C1NCCCN1)c1ccc(Nc2cccc(C(=O)NCCC3CCCC3)c2)cc1` [compound 22, N-(2-cyclopentylethyl)-3-((4-((tetrahydropyrimidin-2(1H)-ylidene)carbamoyl)phenyl)amino)benzamide], the inhibition at 1 µM amounted to 94%.

In the case of `CC(C)CCNC(=O)c1cccc(Nc2ccc(C(=O)N=C3NCCCN3)cc2)c1` [compound 23, N-isopentyl-3-((4-((tetrahydropyrimidin-2(1H)-ylidene)carbamoyl)phenyl)amino)benzamide], the inhibition at 1 µM was 98%.

Staying with this experiment, now noted: Chikungunya virus, HEK-293T; second round of experiments, infected HEK293T cells.
The molecule `O=C(N=C1NCCCN1)c1ccc(Nc2cccc(C(=O)NCCC3CCCC3)c2)cc1` [compound 22, N-(2-cyclopentylethyl)-3-((4-((tetrahydropyrimidin-2(1H)-ylidene)carbamoyl)phenyl)amino)benzamide] showed an IC50 of 100 to 400 nM.

In the case of `CC(C)CCNC(=O)c1cccc(Nc2ccc(C(=O)N=C3NCCCN3)cc2)c1` [compound 23, N-isopentyl-3-((4-((tetrahydropyrimidin-2(1H)-ylidene)carbamoyl)phenyl)amino)benzamide], the IC50 was in the range of 100 to 400 nM.

The experiment is the same for the next values; noted with them: Ribavirin as control in each measure; infected HEK293T cells.
`NC(=O)c1ncn([C@@H]2O[C@H](CO)[C@@H](O)[C@H]2O)n1` [Ribavirin, reference compound]: the “inhibition percentage (Ribavirin positive control)” value is recorded as 100%.

Another experiment has as its system RSV A2. Description: RSV inhibition (cytopathic effect) in HEp-2 cells using Viral ToxGlo assay. In kind it is cell-based. The note with it: human respiratory syncytial virus; RSV A2, HEp-2 cells, MOI 0.5, 72 h p.i. The method, then: Protocol for Screening Antiviral Compounds for RSV Inhibition and Cytotoxicity Using Viral ToxGlo Assay
HEp-2 cells were maintained in Eagle's minimum essential medium (EMEM) with Earle's BSS adjusted to contain 2 mM L-glutamine, 10% fetal bovine serum, 100 U/ml penicillin and 100 μg/ml streptomycin. For the purposes of the screening assay they were grown to 90% confluency, trypsinized and recovered. The trypsin was neutralised with cell culture media and cells were centrifuged at 150×g for 5 minutes before discarding the supernatant and resuspending cell pellet in assay media (EMEM with Earle's BSS adjusted to contain 2 mM L-glutamine, 2% fetal bovine serum and 100 U/ml penicillin and 100 μg/ml streptomycin). The cells were seeded into white clear-bottomed cell culture plates at a density of 1.5×10^4 cells/well in 50 μl and 4×10^3 cells/well in 25 μl for 96 well plates and 384 well plates respectively. For the media/background control column assay media only was added. Cell plates were placed in a humid chamber and incubated overnight at 37° C./5% CO2. After overnight incubation cells were checked for confluency and healthy appearance.
Test articles were made up at 10× test concentration in a maximum DMSO concentration of 10% (final assay concentration maximal 1% DMSO) and added to the cell plates in volumes of 10 μl for 96 well plates and 5 μl for 384 well plates. For cell control and virus control wells the test article solvent only was added. Virus or assay media for cytotoxicity test wells and media/cell control wells was added immediately after test articles at an MOI of 0.5, 40 or 20 μl for 96 and 384 well plates respectively. Virus suspension was prepared by thawing RSV A2 frozen stocks and diluting to the required concentration of plaque forming units in assay media on ice.
Cell plates were further incubated inside a humid chamber for 72 h p.i at 37° C./5% CO2. After the incubation period cells were observed under the microscope to check for characteristic cytopathic effect in virus control wells and healthy cells in the cell control wells. After plates were adjusted to room temperature 20/40 μl Viral ToxGlo (Promega) was added to each well of the 384/96 well cell plates. Plates were incubated at room temperature, protected from light on a plate rocker for 20 minutes before measuring the luminescence on a spectrophotometer (Biotek Synergy HTX).
Background: Cytopathic effects are the visible damage that an infection or toxin causes in cultured cells.
`O=C1CCN/C(=N\C(=O)c2ccc(Nc3cccc(OCCC4COCCO4)c3)c(C3CC3)c2)N1` (stereo not drawn) [compound 150, 3-cyclopropyl-4-({3-[2-(1,4-dioxan-2-yl)ethoxy]phenyl}amino)-N-[(2E)-4-oxo-1,3-diazinan-2-ylidene]benzamide]: the EC50 turned out to be 512 nM.

Take `O=C1CCN/C(=N\C(=O)c2ccc(Nc3cccc(OCC4CCCCO4)c3)c(C3CC3)c2)N1` (stereo not drawn) [compound 151, 3-cyclopropyl-4-({3-[(oxan-2-yl)methoxy]phenyl}amino)-N-[(2E)-4-oxo-1,3-diazinan-2-ylidene]benzamide]: the EC50 stood at 525 nM.

For `O=C(N=C1NCCCN1)c1ccc(Nc2cccc(C(=O)NC3CC(F)(F)C3)c2)c(C2CC2)c1` [compound 152, 3-cyclopropyl-N-(1,3-diazinan-2-ylidene)-4-({3-[(3,3-difluorocyclobutyl)carbamoyl]phenyl}amino)benzamide], the EC50 turned out to be 593 nM.

With `Cc1cc(C(=O)N=C2NCCCN2)ccc1Nc1cccc(NC(=O)CCC2CCCCC2)c1` [compound 153, 4-{[3-(3-cyclohexylpropanamido)phenyl]amino}-N-(1,3-diazinan-2-ylidene)-3-methylbenzamide], the EC50 turned out to be 704 nM.

Consider `CC1(C)CN1C(=O)c1cccc(Nc2ccc(C(=O)N=C3NCCCN3)cc2C2CC2)c1` [compound 154, 3-cyclopropyl-N-(1,3-diazinan-2-ylidene)-4-{[3-(2,2-dimethylaziridine-1-carbonyl)phenyl]amino}benzamide], for which the EC50 was 917 nM.

With `O=C(N=C1NCCCN1)c1ccc(Nc2cccc(C(=O)NC3CCOC3)c2)c(C2CC2)c1` (stereo not drawn) [compound 155, 3-cyclopropyl-N-(1,3-diazinan-2-ylidene)-4-({3-[(oxolan-3-yl)carbamoyl]phenyl}amino)benzamide], the EC50 worked out at 949 nM.

As to `Cc1cc(C(=O)N=C2NCCCN2)ccc1Nc1cccc(OCCCC2CCCCC2)c1` [compound 156, 4-{[3-(3-cyclohexylpropoxy)phenyl]amino}-N-(1,3-diazinan-2-ylidene)-3-methylbenzamide], the EC50 stood at 966 nM.

As to `O=C(N=C1NCCCN1)c1ccc(Nc2cccc(C(=O)NC3CCOCC3)c2)c(C2CC2)c1` [compound 157, 3-cyclopropyl-N-(1,3-diazinan-2-ylidene)-4-({3-[(oxan-4-yl)carbamoyl]phenyl}amino)benzamide], the EC50 came out at 1030 nM.

`O=C(N=C1NCCCN1)c1ccc(Nc2cccc(C(=O)N3CCOCC3)c2)c(C2CC2)c1` [compound 158, 3-cyclopropyl-N-(1,3-diazinan-2-ylidene)-4-{[3-(morpholine-4-carbonyl)phenyl]amino}benzamide]: the EC50 is 1030 nM.

In the case of `O=C(N=C1NCCCN1)c1ccc(Nc2ccccc2C(=O)NCCC(F)(F)F)c(C2CC2)c1` [compound 159, 3-cyclopropyl-N-(1,3-diazinan-2-ylidene)-4-({2-[(3,3,3-trifluoropropyl)carbamoyl]phenyl}amino)benzamide], the EC50 came to 1100 nM.

With `O=C1CCN/C(=N\C(=O)c2ccc(Nc3cccc(OCC4COCCO4)c3)c(C3CC3)c2)N1` (stereo not drawn) [compound 161, 3-cyclopropyl-4-({3-[(1,4-dioxan-2-yl)methoxy]phenyl}amino)-N-[(2E)-4-oxo-1,3-diazinan-2-ylidene]benzamide], the EC50 is 1310 nM.

In the case of `CC1CN1C(=O)c1cccc(Nc2ccc(C(=O)N=C3NCCCN3)cc2C2CC2)c1` (stereo not drawn) [compound 162, 3-cyclopropyl-N-(1,3-diazinan-2-ylidene)-4-{[3-(2-methylaziridine-1-carbonyl)phenyl]amino}benzamide], the EC50 turned out to be 1370 nM.

Regarding `CN(C)C(=O)c1cccc(Nc2ccc(C(=O)N=C3NCCCN3)cc2C2CC2)c1` [compound 163, 3-cyclopropyl-N-(1,3-diazinan-2-ylidene)-4-{[3-(dimethylcarbamoyl)phenyl]amino}benzamide], the concentration giving a half-maximal response (EC50) is 1470 nM.

For the molecule `O=C1CCN/C(=N\C(=O)c2ccc(Nc3cccc(C(=O)N4CCOCC4)c3)c(C3CC3)c2)N1` [compound 164, 3-cyclopropyl-4-{[3-(morpholine-4-carbonyl)phenyl]amino}-N-[(2E)-4-oxo-1,3-diazinan-2-ylidene]benzamide], the EC50 turned out to be 1500 nM.

Turning to `Cc1c(Nc2ccc(C(=O)N=C3NCCCN3)cc2C2CC2)cccc1C(=O)NC1(C#N)CC1` [compound 165, 4-({3-[(1-cyanocyclopropyl)carbamoyl]-2-methylphenyl}amino)-3-cyclopropyl-N-(1,3-diazinan-2-ylidene)benzamide], the EC50 came to 1760 nM.

In the case of `O=C(N=C1NCCCN1)c1ccc(Nc2cccc(C(=O)NC3COC3)c2)c(C2CC2)c1` [compound 166, 3-cyclopropyl-N-(1,3-diazinan-2-ylidene)-4-({3-[(oxetan-3-yl)carbamoyl]phenyl}amino)benzamide], the EC50 turned out to be 2740 nM.
